Experimental data as given in US20210181182A1, “METHOD FOR IDENTIFICATION OF PERTURBAGENS OF PARTICULAR BIOLOGICAL PROCESSES AND CELL SYSTEMS WITHIN LIVING CELLS” (priority 2018, published 2021).
Like-named read-outs stand apart in the source and are kept apart here. Marks after values point to notes of the source that are not given here.

Experiments:
DNA damage = test: FACTORIAL assay: weak / strong DNA damage TFAP clusters; type: cell-based, human; settings: HepG2, 24 h, all tested concentrations
[1] = tested on: mitochondria membrane potential; settings: HepG2, 1-hour incubation at concentrations below 60 μM; cited from earlier work
[2] = tested on: mitochondrial electron transport chain (mETC); test: FACTORIAL assay: similarity of TFAP to the consensus (invariant) mETC TFAP; type: cell-based, human
HG19/HepG2 cells = type: cell-based
Method: Cell viability was evaluated by the XTT (2,3-Bis-(2-Methoxy-4-Nitro-5-Sulfophenyl)-2H-Tetrazolium-5-Carboxanilide) assay (ATCC) in HG19/HepG2 cells. As a baseline, cells are used that were treated with corresponding dilutions of the vehicle (DMSO). The viability data are an average of two replicates. The viability threshold was set at 80% viability.

Akt kinase = test: FACTORIAL assay: similarity of TFAP to the invariant signature of Akt inhibitors; type: cell-based, human; settings: for retrieved by querying the TFAP database with the invariant signature for AKT inhibitors: database of over 30,000 signatures
CDK = type: cell-based, human; settings: HepG2, 24 h
HDAC = test: FACTORIAL assay: similarity of TFAP to the consensus HDAC inhibitor TFAP; type: cell-based, human; settings: for retrieved by querying the Attagene dataset with the HDAC TFAP: HepG2, ToxCast TFAP dataset
HepG2 cells [3] = test: FACTORIAL assay: query of TFAPs against reference compound signatures of the Attagene TFAP database; type: cell-based, human; settings: HepG2, 24 h
[4] = in humans; cited from earlier work
HepG2 cells [5] = test: FACTORIAL assay: transition of the TFAP signature of glitazones with concentration; type: cell-based, human; settings: HepG2, 24-hour treatment
[6] = tested on: ubiquitin (Ub)/proteasome pathway (UPP); test: FACTORIAL assay: similarity of TFAP to the consensus UPP TFAP; type: cell-based, human
[7] = HepG2, 24 h incubation, each value at the concentration [uM]

Molecule	MMP assay hitCall [1]	Pearson correlation with the mETC TFAP, r [2, 7]	further results
O=c1[nH]cc(F)c(=O)[nH]1 [5-fluorouracil]	–	–	DNA damage TFAP elicited (weak or strong damage cluster) (DNA damage): only the weak damage TFAP
N.N.[Cl][Pt][Cl] [Cisplatin, reference compound]	0*	0.824	cell numbers at the end of incubation (HG19/HepG2 cells): significantly reduced cell numbers
C[S+](C)[O-] [DMSO]	–	–	retrieved by querying the TFAP database with the invariant signature for AKT inhibitors (Akt kinase): retrieved
CCc1cnn2c(NCc3ccc[n+]([O-])c3)cc(N3CCCC[C@H]3CCO)nc12 [Dinaciclib, reference compound]	–	–	similarity r to the invariant signature for CDK inhibitors (CDK; over three logs of concentrations): > 0.85
CC(C)NC[C@@H](C(=O)N1CCN(c2ncnc3c2[C@H](C)C[C@H]3O)CC1)c1ccc(Cl)cc1 [GDC-0068, Ipatasertib, reference compound]	–	–	similarity r to the invariant signature of AKT inhibitors (Akt kinase): > 0.80
Cn1nccc1Nc1nccc(-c2ccn([C@H](CO)c3ccc(Cl)c(F)c3)c(=O)c2)n1 [GDC-0994]	–	–	signature match at higher concentrations (HDAC inhibitors) (HDAC; HepG2, 24 h, above 2.2 uM): matched the invariant signature of HDAC inhibitors
CCN(CC)C(=O)c1ccc(Nc2nc(OCC3CCCCC3)c3[nH]cnc3n2)cc1 [NU6140, reference compound]	–	–	similarity r to the signature for a cadmium salt (HepG2 cells [3]; at 20 uM): 0.71; concentration with signature similar to the invariant signature for CDK inhibitors (CDK): 6.7 µM
NC(=O)N/N=C/c1ccc([N+](=O)[O-])o1 [Nitrofurazone, reference compound]	0*	–	Pearson correlation with the mETC TFAP, r ([2]; 24 h): 0.856
CO/C=C(/C(=O)OC)c1ccccc1COc1cccc(C(F)(F)F)n1 [Picoxystrobin]	1	0.885	–
CCN(CC)c1ccc2c(-c3ccccc3C(=O)O)c3ccc(=[N+](CC)CC)cc-3oc2c1.[Cl-] [Rhodamine B]	0	0.810	–
CCc1cccc(C)c1N(C(=O)CCl)[C@@H](C)COC [S-Metolachlor]	0	0.856	–
O.O.O.O.[Na+].[O-]c1ccccc1-c1ccccc1 [Sodium 2-phenylphenate tetrahydrate]	1	0.807	–
Cc1cc(C)c(C2=C(OC(=O)CC(C)(C)C)C3(CCCC3)OC2=O)c(C)c1 [Spiromesifen]	1	0.816	–
COC(=O)Nc1ccc(Cl)c(Cl)c1 [Swep]	1	0.927	–
Nc1c2c(nc3ccccc13)CCCC2 [Tacrine, reference compound]	0*	–	Pearson correlation with the mETC TFAP, r ([2]; 24 h): 0.810
Cc1c(C)c2c(c(C)c1O)CCC(C)(COc1ccc(CC3SC(=O)NC3=O)cc1)O2 (centres unmarked) [Troglitazone]	–	–	similarity r with the TFAP for hydrogen peroxide (HepG2 cells [3]; at 60 uM): > 0.8; maximum plasma concentration [4]: 6.4 µM; concentration of transformation into tertiary signature (HepG2 cells [5]): 60 µM; concentration of transformation of primary TFAP into secondary TFAP (threshold for off-target effects) (HepG2 cells [5]): 20 µM; cell death (HG19/HepG2 cells): caused cell death
COP(=O)(OC)O/C(=C\Cl)c1cc(Cl)c(Cl)cc1Cl [Z-Tetrachlorvinphos]	1	0.892	–
CN(C)c1ccc(C(=N)c2ccc(N(C)C)cc2)cc1 [auramine, auramine O]	–	–	DNA damage TFAP elicited (weak or strong damage cluster) (DNA damage): only the strong damage TFAP
[Cl][Cd][Cl] [cadmium chloride]	–	–	retrieved by querying the Attagene dataset with the invariant UPP signature [6]: retrieved
CCO [ethanol]	–	–	retrieved by querying the TFAP database with the invariant signature for AKT inhibitors (Akt kinase): retrieved
O=c1[nH]c(=O)n([C@H]2C[C@H](O)[C@@H](CO)O2)cc1F [floxuridine]	–	–	DNA damage TFAP elicited (weak or strong damage cluster) (DNA damage): only the weak damage TFAP
CC(C)C(=O)O [isobutyric acid]	–	–	retrieved by querying the Attagene dataset with the HDAC TFAP (HDAC): retrieved
Fc1ccc([C@@H]2CCNC[C@H]2COc2ccc3c(c2)OCO3)cc1 [paroxetine, reference compound]	–	–	retrieved by querying the TFAP database with the invariant signature for AKT inhibitors (Akt kinase): retrieved
CCc1ccc(CCOc2ccc(CC3SC(=O)NC3=O)cc2)nc1 (centres unmarked) [pioglitazone]	–	–	concentration of transformation of primary TFAP into secondary TFAP (threshold for off-target effects) (HepG2 cells [5]): 180 µM
CC(/C=C/C(=O)NO)=C\[C@@H](C)C(=O)c1ccc(N(C)C)cc1 [trychostatin]	–	–	retrieved by querying the Attagene dataset with the HDAC TFAP (HDAC): retrieved
Bisphenol A glycidyl methacrylate	1	0.939	–
Chlorpyrifos oxon	1	0.827	–
Dinocap	1	0.897	–
Mancozeb	0*	0.867	–
triphenyltin	–	–	retrieved by querying the Attagene dataset with the invariant UPP signature ([6]; HepG2, ToxCast TFAP dataset): retrieved
